From patent US8680159B2, “Bradykinin 1 receptor modulating compounds” (Gruenenthal GmbH, priority 2010, dated 2014)

Legend:
[1] = target: T1, human B1R receptor (CHO K1 cells stably transfected with the human B1R gene) (Homo sapiens, UniProt P46663); experiment: Functional study on the bradykinin receptor 1 (B1R), Ca2+ fluorescence (Fluo-4) FLIPR/Novostar assay, hB1R cells; type: cell-based; settings: CHO-K1, read-out: % inhibition (human B1R) at 10 μM
T1 construct: expressed in transfected cells; host or cells: CHO K1 cells (Chinese hamster ovary), stably transfected
T1 sequence (P46663 1-353): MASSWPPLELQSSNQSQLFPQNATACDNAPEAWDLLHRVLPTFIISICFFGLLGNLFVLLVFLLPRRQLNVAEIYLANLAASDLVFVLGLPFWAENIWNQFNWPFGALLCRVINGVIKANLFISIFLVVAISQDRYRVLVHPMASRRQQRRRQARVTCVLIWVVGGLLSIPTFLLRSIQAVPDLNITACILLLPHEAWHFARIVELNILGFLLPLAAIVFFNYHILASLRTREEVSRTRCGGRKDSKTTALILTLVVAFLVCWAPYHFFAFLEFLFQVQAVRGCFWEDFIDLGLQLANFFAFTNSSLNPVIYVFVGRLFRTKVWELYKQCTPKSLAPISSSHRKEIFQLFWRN
Method in brief: (§1)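 Test compounds (10 μM) were added first and the Ca2+ rise was scored as % activation against Lys-Des-Arg9-bradykinin (≥50 nM, human) or Des-Arg9-bradykinin (≥1 μM, rat). After 6-20 min, the matching agonist was given at its EC80, and % inhibition relative to maximal achievable inhibition was calculated.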

[2] = target: T2, B1R receptor of the rat (CHO K1 cells stably transfected with the B1R gene of the rat) (Rattus norvegicus, UniProt P97583); experiment: Functional study on the bradykinin receptor 1 (B1R), Ca2+ fluorescence (Fluo-4) FLIPR/Novostar assay, rB1R cells; type: cell-based; settings: CHO-K1, 10 μM, read-out: % inhibition (rat B1R) at 10 μM
T2 construct: expressed in transfected cells; host or cells: CHO K1 cells (Chinese hamster ovary), stably transfected
T2 sequence (P97583 1-337): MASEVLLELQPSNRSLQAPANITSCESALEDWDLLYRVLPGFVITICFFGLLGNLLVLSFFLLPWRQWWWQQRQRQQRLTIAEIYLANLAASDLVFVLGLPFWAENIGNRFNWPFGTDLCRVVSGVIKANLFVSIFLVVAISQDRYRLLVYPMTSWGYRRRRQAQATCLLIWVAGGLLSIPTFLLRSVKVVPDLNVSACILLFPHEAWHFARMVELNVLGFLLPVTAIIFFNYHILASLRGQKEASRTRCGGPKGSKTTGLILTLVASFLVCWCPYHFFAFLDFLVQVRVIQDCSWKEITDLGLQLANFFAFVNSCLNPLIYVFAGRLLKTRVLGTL
Method in brief: as §1

| inhibition at 10 µM [1] | inhibition at 10 µM [2] | SMILES |
| --- | --- | --- |
| 99% | 103% | CN(C(=O)c1ccc2c(c1)[C@H](NC(=O)c1ccccc1Cl)CC2)C1CCCN(c2ccncc2)CC1 (stereo partly drawn) [Example H-116, (3R)-3-[(2-Chloro-benzoyl)amino]-N-methyl-N-(1-pyridin-4-yl-azepan-4-yl)-2,3-dihydro-1H-indene-5-carboxylic acid amide] |
| 99% | 105% | CN(C(=O)c1ccc2c(c1)[C@H](NC(=O)c1ccccc1Cl)CC2)C1CCN(c2ccncc2F)CC1 [Example H-117, (3R)-3-[(2-Chloro-benzoyl)amino]-N-[1-(3-fluoro-pyridin-4-yl)-piperidin-4-yl]-N-methyl-2,3-dihydro-1H-indene-5-carboxylic acid amide] |
| 100% | 104% | CN(C)c1nccc(N2CCC(N(C)C(=O)c3ccc4c(c3)[C@H](NC(=O)c3ccccc3Cl)CC4)CC2)n1 [Example H-118, (3R)-3-[(2-Chloro-benzoyl)amino]-N-[1-(2-dimethylamino-pyrimidin-4-yl)-piperidin-4-yl]-N-methyl-2,3-dihydro-1H-indene-5-carboxylic acid amide] |
| 91% | 52% | CC(C)CC(=O)N(C(C)C)[C@@H]1CCc2ccc(C(=O)N(C)C3CCN(c4ccnc(N(C)C)c4)CC3)cc21 [Example H-119, (3R)-N-[1-(2-Dimethylamino-pyridin-4-yl)-pipendin-4-yl]-3-[isopropyl-(3-methyl-butanoyl)-amino]-N-methyl-2,3-dihydro-1H-indene-5-carboxylic acid amide] |
| 98% | 78% | CC(C)CC(=O)N(C(C)C)[C@@H]1CCc2ccc(C(=O)N(C)C3CCN(c4ccnc(N(C)C)n4)CC3)cc21 [Example H-120, (3R)-N-[1-(2-Dimethylamino-pyrimidin-4-yl)-pipendin-4-yl]-3-[isopropyl-(3-methyl-butanoyl)-amino]-N-methyl-2,3-dihydro-1H-indene-5-carboxylic acid amide] |
| 100% | 103% | Cc1nccc(N2CCC(N(C)C(=O)c3ccc4c(c3)[C@H](NC(=O)c3ccccc3Cl)CC4)CC2)n1 [Example H-122, (3R)-3-[(2-Chloro-benzoyl)amino]-N-methyl-N-[1-(2-methyl-pyrimidin-4-yl)-piperidin-4-yl]-2,3-dihydro-1H-indene-5-carboxylic acid amide] |
| 97% | 107% | CN(C(=O)c1ccc2c(c1)[C@H](NC(=O)c1ccccc1Cl)CC2)C1CCN(c2ccnc(C#N)c2)CC1 [Example H-123, (3R)-3-[(2-Chloro-benzoyl)amino]-N-[1-(2-cyano-pyridin-4-yl)-piperidin-4-yl]-N-methyl-2,3-dihydro-1H-indene-5-carboxylic acid amide] |
| 100% | 108% | CN(C(=O)c1ccc2c(c1)[C@H](NC(=O)c1ccccc1Cl)CC2)C1CCN(c2ccnc(N3CCCC3)c2)CC1 [Example H-124, (3R)-3-[(2-Chloro-benzoyl)amino]-N-methyl-N-[1-(2-pyrrolidin-1-yl-pyridin-4-yl)-piperidin-4-yl]-2,3-dihydro-1H-indene-5-carboxylic acid amide] |
| 70% | 104% | Cc1nsc(N2CCC(N(C)C(=O)c3ccc4c(c3)[C@H](NC(=O)c3ccccc3Cl)CC4)CC2)n1 [Example H-125, (3R)-3-[(2-Chloro-benzoyl)amino]-N-methyl-N-[1-(3-methyl-[1,2,4]thiadiazol-5-yl)-piperidin-4-yl]-2,3-dihydro-1H-indene-5-carboxylic acid amide] |
| 100% | 104% | COc1nc(C)cc(N2CCC(N(C)C(=O)c3ccc4c(c3)[C@H](NC(=O)c3ccccc3Cl)CC4)CC2)n1 [Example H-126, (3R)-3-[(2-Chloro-benzoyl)amino]-N-[1-(2-methoxy-6-methyl-pyrimidin-4-yl)-piperidin-4-yl]-N-methyl-2,3-dihydro-1H-indene-5-carboxylic acid amide] |
